Experimental data: ChEMBL document CHEMBL1135322, “Glutathione-like tripeptides as inhibitors of glutathionylspermidine synthetase. Part 1: Substitution of the glycine carboxylic acid group” (Bioorg Med Chem Lett, 2002); call rule not given here
Values joined by “and” are separate entries in the source; they are usually repeats but may differ in a detail not shown here. Equal entries are not always repeated. Blank lines part the entries; values can stand above or below the molecule they belong to. Where a SMILES comes first, the peptide text is derived from it.

How the values were obtained:
[1] = biological target: T1, Glutathionylspermidine synthase (Crithidia fasciculata, UniProt P90518); experiment: Inhibition constant was evaluated against enzyme Glutathionylspermidine Synthetase wild-type enzyme
T1 sequence (P90518 whole entry): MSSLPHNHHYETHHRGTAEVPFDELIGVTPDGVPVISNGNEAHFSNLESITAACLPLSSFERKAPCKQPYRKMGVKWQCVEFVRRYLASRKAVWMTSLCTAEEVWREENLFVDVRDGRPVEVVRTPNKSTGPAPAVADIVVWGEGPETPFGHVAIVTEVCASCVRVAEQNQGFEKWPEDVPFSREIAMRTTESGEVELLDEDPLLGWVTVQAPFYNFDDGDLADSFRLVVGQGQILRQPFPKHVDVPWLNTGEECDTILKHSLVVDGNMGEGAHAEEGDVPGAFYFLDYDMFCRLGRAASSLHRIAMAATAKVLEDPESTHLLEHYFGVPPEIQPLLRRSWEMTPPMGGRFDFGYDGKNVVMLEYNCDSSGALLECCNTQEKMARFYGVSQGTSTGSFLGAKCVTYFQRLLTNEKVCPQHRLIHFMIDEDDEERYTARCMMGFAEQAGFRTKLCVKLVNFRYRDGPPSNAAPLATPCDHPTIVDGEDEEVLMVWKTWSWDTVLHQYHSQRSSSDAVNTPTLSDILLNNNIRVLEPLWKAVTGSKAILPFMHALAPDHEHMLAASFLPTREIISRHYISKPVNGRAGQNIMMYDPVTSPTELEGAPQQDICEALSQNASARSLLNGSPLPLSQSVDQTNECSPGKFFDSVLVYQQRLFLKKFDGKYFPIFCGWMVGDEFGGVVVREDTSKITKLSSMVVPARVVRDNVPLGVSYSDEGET

[2] = biological target: T2, Glutathionylspermidine synthase (Crithidia fasciculata) (UniProt P90518); experiment: Compound was tested for substrate activity towards the enzyme Glutathionylspermidine Synthetase wild-type enzyme and compared with 0.5 mM GSH
T2 sequence (whole entry): T1 sequence (P90518 whole entry)

[3] = biological target: T1, Glutathionylspermidine synthase; experiment: Concentration required for the inhibition of enzyme Glutathionylspermidine Synthetase wild-type enzyme
[4] = biological target: T2, Glutathionylspermidine synthase (Crithidia fasciculata); experiment: Compound was tested for percent inhibition towards the enzyme Glutathionylspermidine Synthetase wild-type enzyme and compared with 0.5 mM GSH
[5] = biological target: T2, Glutathionylspermidine synthase (Crithidia fasciculata); experiment: (§1) Substrate activity against amidase free Glutathionylspermidine Synthetase mutant (C79A)
[6] = biological target: T2, Glutathionylspermidine synthase (Crithidia fasciculata); experiment: (§2) Inhibitory activity against amidase free Glutathionylspermidine Synthetase mutant (C79A); conditions: concentration not given here
[7] = biological target: T3, Glutathionylspermidine synthase (Crithidia fasciculata, UniProt P90518, C79A); experiment: Inhibitory constant against amidase free Glutathionylspermidine Synthetase mutant (C79A)
T3 sequence (P90518 whole entry C79A): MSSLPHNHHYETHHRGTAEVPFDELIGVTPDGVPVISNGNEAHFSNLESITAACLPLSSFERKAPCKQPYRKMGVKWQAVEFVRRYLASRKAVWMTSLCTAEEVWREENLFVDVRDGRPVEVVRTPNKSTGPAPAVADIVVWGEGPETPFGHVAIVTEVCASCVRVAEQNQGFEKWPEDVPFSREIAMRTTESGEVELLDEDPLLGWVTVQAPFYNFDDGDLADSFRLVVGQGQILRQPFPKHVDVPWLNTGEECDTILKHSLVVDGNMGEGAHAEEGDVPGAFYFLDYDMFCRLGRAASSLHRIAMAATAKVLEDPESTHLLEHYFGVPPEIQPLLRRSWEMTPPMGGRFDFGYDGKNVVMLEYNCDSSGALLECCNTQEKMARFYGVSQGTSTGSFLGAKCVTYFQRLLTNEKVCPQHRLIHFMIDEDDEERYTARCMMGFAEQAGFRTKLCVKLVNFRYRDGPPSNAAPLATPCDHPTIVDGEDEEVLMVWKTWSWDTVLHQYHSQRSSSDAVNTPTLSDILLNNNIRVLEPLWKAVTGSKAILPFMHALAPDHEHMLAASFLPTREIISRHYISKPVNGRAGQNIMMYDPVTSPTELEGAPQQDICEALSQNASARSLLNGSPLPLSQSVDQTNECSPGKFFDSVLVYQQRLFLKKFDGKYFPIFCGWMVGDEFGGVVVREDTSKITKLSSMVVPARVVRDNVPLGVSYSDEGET

[8] = biological target: T3, Glutathionylspermidine synthase; experiment: Inhibitory constant against amidase free Glutathionylspermidine Synthetase mutant (C79A); NA denotes not applicable
[9] = biological target: T3, Glutathionylspermidine synthase; experiment: as §2
[10] = Half-life was determined; format: ADME; conditions: human
[11] = biological target: T1, Glutathionylspermidine synthase; experiment: Concentration required for the inhibition of enzyme Glutathionylspermidine Synthetase wild-type enzyme; NA denotes not applicable
[12] = biological target: T3, Glutathionylspermidine synthase; experiment: Inhibitory activity against amidase free Glutathionylspermidine Synthetase mutant (C79A); NA denotes not applicable
[13] = biological target: T1, Glutathionylspermidine synthase; experiment: Inhibition constant was evaluated against enzyme Glutathionylspermidine Synthetase wild-type enzyme; NA denotes not applicable
[14] = biological target: T1, Glutathionylspermidine synthase; experiment: Inhibition constant was evaluated against enzyme Glutathionylspermidine Synthetase; NA denotes not applicable
[15] = substrate: CC(C)C[C@H](NC(=O)CC[C@H](N)C(=O)O)C(=O)NCC(N)=O; experiment: as §1; conditions: Crithidia fasciculata
[16] = substrate: CC(C)C[C@H](NC(=O)CC[C@H](N)C(=O)O)C(=O)NCC(=O)O; experiment: Compound was tested for substrate activity (Apparent Km) towards the enzyme Glutathionylspermidine Synthetase wild-type enzyme and compared with 0.5 mM GSH; conditions: Crithidia fasciculata
[17] = substrate: CC(C)C[C@H](NC(=O)CC[C@H](N)C(=O)O)C(=O)NCc1nn[nH]n1; experiment: Michaelis-Menten constant at the concentration of < 0.4 mM; conditions: Crithidia fasciculata

Molecule: CC(C)C[C@H](NC(=O)CC[C@H](N)C(=O)O)C(=O)NCP(=O)(O)O
Ki [1]: 60 µM
Activity [2]: 0%
IC50 [3]: 60 µM
inhibition [4]: 86%

Molecule: CC(C)C[C@H](NC(=O)CC[C@H](N)C(=O)O)C(=O)NCc1nnn[nH]1
IC50 [3]: 138 µM

Molecule: CC(C)C[C@H](NC(=O)CC[C@H](N)C(=O)O)C(=O)NCC(=O)NO (HELM PEPTIDE1{[gGlu].L.G.[ON[*:1]]}$$$$V2.0)
Ki [7]: 2.5 µM
Ki [8]: Not Active
IC50 [9]: 3.2 µM
Activity [5]: 1%
Activity [2]: 44%
inhibition [4]: 76%
inhibition [6]: 98%

Molecule: CC(C)C[C@H](NC(=O)CC[C@H](N)C(=O)O)C(=O)NCC(N)=O (HELM PEPTIDE1{[gGlu].L.G.[am]}$$$$V2.0)
Ki [8]: Not Active
IC50 [9]: 105 µM
Activity [5]: 22%
Activity [2]: 93%
inhibition [4]: 0%
inhibition [6]: 89%

Molecule: CC(C)C[C@H](NC(=O)CC[C@H](N)C(=O)O)C(=O)NCC(=O)O (HELM PEPTIDE1{[gGlu].L.G}$$$$V2.0)
half-life [10]: 1 h
Activity [5]: 125%
Activity [2]: 104%
inhibition [4]: 0%
IC50 [11]: Not Active
inhibition [6]: 0%
IC50 [12]: Not Active
Ki [13]: Not Active
Ki [14]: Not Active

B1: Glutathionylspermidine synthase (Crithidia fasciculata), P90518 (protein)
chain: T1 sequence (P90518 whole entry)
Km [15]: 245 µM
Vmax [15]: 15%
Km [16]: 34 µM
Km [17]: 34 µM

Continued, values first:

Activity [2]: 2%
IC50 [3]: 2 µM
inhibition [4]: 2%
Molecule: Cc1ccc(S(=O)(=O)NC(=O)CNC(=O)[C@H](CC(C)C)NC(=O)CC[C@H](N)C(=O)O)cc1

Ki [1]: 81 µM and 18 µM
Activity [2]: 1%
IC50 [3]: 17.2 µM
inhibition [4]: 95%
Molecule: CC(C)C[C@H](NC(=O)CC[C@H](N)C(=O)O)C(=O)NCB(O)O

Activity [2]: 0%
inhibition [4]: 58%
Molecule: CC(C)C[C@H](NC(=O)CC[C@H](N)C(=O)O)C(=O)NCc1nn[nH]n1

Activity [5]: 3%
Activity [2]: 102%
inhibition [4]: 0%
inhibition [6]: 26%
Molecule: CCCCOC(=O)CNC(=O)[C@H](CC(C)C)NC(=O)CC[C@H](N)C(=O)O
